# Measurements published in patent US8557984B2, “Imidazo [4, 5-C] quinoline derivatives as bromodomain inhibitors” (GlaxoSmithKline LLC, priority 2009, dated 2013).
# Tests used:
# [1] = test system: TNFα; test: LPS Stimulated Whole Blood Measuring TNFα Levels Assay; type: cell-based; details: LPS 200 ng/ml, 24 h, read-out: pIC50 (TNFα levels) (converted)
# Method: (§1) Activation of monocytic cells by agonists of toll-like receptors such as bacterial lipopolysaccharide (LPS) results in production of key inflammatory mediators including TNFα. Such pathways are widely considered to be central to the pathophysiology of a range of auto-immune and inflammatory disorders.
# Compounds to be tested are diluted to give a range of appropriate concentrations and 1 ul of the dilution stocks is added to wells of a 96 plate. Following addition of whole blood (130 ul) the plates are incubated at 37 degrees (5% CO2) for 30 min before the addition of 10 ul of 2.8 ug/ml LPS, diluted in complete RPMI 1640 (final concentration=200 ng/ml), to give a total volume of […] per well. After further incubation for 24 h at 37 degrees, 140 ul of PBS are added to each well. The plates are sealed, shaken for 10 minutes and then centrifuged (2500 rpm×10 min). 100 ul of the supernatant are removed and TNFα levels assayed by immunoassay (typically by MesoScale Discovery technology) either immediately or following storage at −20 degrees. Dose response curves for each compound was generated from the data and an IC50 value was calculated.
# [2] = test system: Balb/c male mice; test: In Vivo Mouse Endotoxemia Model; details: 15 mg/kg LPS i.p., compound 10 mg/kg intravenously ninety minutes later; for Numbers of animals surviving at 4 days (summed across multiple repeat experiments): survivors/total
# From the text: High doses of Endotoxin (bacterial lipopolysaccharide) administered to animals produce a profound shock syndrome including a strong inflammatory response, dysregulation of cardiovascular function, organ failure and ultimately mortality. This pattern of response is very similar to human sepsis and septic shock, where the body's response to a significant bacterial infection can be similarly life threatening.
# To test the compounds for use in the invention groups of eight Balb/c male mice were given a lethal dose of 15 mg/kg LPS by intraperitoneal injection. Ninety minutes later, animals were dosed intravenously with vehicle (20% cyclodextrin 1% ethanol in apyrogen water) or compound (10 mg/kg). The survival of animals was monitored at 4 days.
# Numbers of animals surviving at 4 days (summed across multiple repeat experiments)
# [3] = test system: IL-6; test: Measurement of LPS Induced IL-6 Secretion from Whole Blood; type: cell-based; details: LPS 200 ng/ml, 24 hours, read-out: pIC50 (IL-6 levels) (converted)
# Method: as §1, with “IL-6.” for “TNFα.”
# Compounds to be tested are diluted to give a range of appropriate concentrations of which 1 ul of the diluted stocks is added to a 96 well plate. Following addition of whole blood (130 ul) the plates are incubated at 37 degrees (5% CO2) for 30 min before the addition of 10 ul of 2.8 ug/ml LPS, diluted in complete RPMI 1640 (final concentration=200 ng/ml), to give a total volume of 140 ul per well. After further incubation for 24 hours at 37 degrees, 140 ul of PBS are added to each well. The plates are sealed, shaken for 10 minutes and then centrifuged (2500 rpm×10 min). 100 ul of the supernatant are removed and IL-6 levels assayed by immunoassay (typically by MesoScale Discovery technology) either immediately or following storage at −20 degrees. Concentration response curves for each compound was generated from the data and an IC50 value was calculated
# [4] = test system: Human cell lines (n=33 comprising 15 heme cell lines, 14 breast cell lines and 4 other cell lines); test: Oncology Cell Growth Assay, all cell lines; type: cell-based; details: across all cell lines, 72 hours, CellTiter-Glo, read-out: gIC50
# Method: (§2) Human cell lines (n=33 comprising 15 heme cell lines, […] and 4 other cell lines) were cultured in RPMI-1640 containing 10% fetal bovine serum, 1000 viable cells per well were plated in 384-well black flat bottom polystyrene plates (Greiner #781086) in 48 μl of culture media. All plates were placed at 5% CO2, 37° C. overnight. The following day one plate was harvested with CellTiter-Glo (CTG, Promega #G7573) for a time equal to 0 (T0) measurement and compound (20 point titration from 14.7 uM to 7 pM) was added to the remaining plates. The final concentration of DMSO in all wells was 0.15%. Cells were incubated for 72 hours or the indicated time and each plate was developed with CellTiter-Glo reagent using a volume equivalent to the cell culture volume in the wells. Plates were shaken for approximately 2 minutes and chemiluminescent signal was read on the Analyst GT (Molecular Devices) or EnVision Plate Reader (Perkin Elmer).
# (§3) Results were expressed as a percent of the T0 and plotted against the compound concentration. […] The Ymin-T0 value is determined by subtracting the T0 value (100%) from the Ymin value (%) determined from the fit of the concentration response curve. […]
# [5] = test system: heme cell lines; test: Oncology Cell Growth Assay, heme cell lines; type: cell-based; details: Homo sapiens, 72 hours, CellTiter-Glo, read-out: gIC50
# Method: as §2, §3
# [6] = test system: breast cell lines; test: Oncology Cell Growth Assay, breast cell lines; type: cell-based; details: Homo sapiens, 72 hours, CellTiter-Glo, read-out: gIC50
# Method: as §2, §3
SMILES,IC50 [1] [µM],IC50 [3] [µM],further results
COc1cc2c(cc1-c1c(C)noc1C)ncc1[nH]c(=O)n(Cc3ccccc3)c12 [Example 15],≤ 3.16,–,–
"COc1cc2c(cc1-c1c(C)noc1C)ncc1nc(C3CCOCC3)n([C@H](C)c3ccccc3)c12 [Example 31, 7-(3,5-dimethyl-4-isoxazolyl)-8-(methoxy)-1-[(1R)-1-phenylethyl]-2-(tetrahydro-2H-pyran-4-yl)-1H-imidazo[4,5-c]quinoline]",≤ 3.16,–,"Animals surviving at 4 days, percent [2]: 38%; Numbers of animals surviving at 4 days (summed across multiple repeat experiments) [2]: 9/24"
"Cc1noc(C)c1-c1ccc2c(c1)ncc1ncn(-c3ccccc3C(C)(C)C)c12 [Example 18, 1-[2-(tert-butyl)phenyl]-7-(3,5-dimethyl-4-isoxazolyl)-1H-imidazo[4,5-c]quinoline]",–,–,melting point: 216 °C
"COc1cc2c(cc1-c1c(C)noc1C)ncc1nc(C3CCOCC3)n(Cc3ccccn3)c12 [Example 27, 7-(3,5-dimethyl-4-isoxazolyl)-8-(methoxy)-1-(2-pyridinylmethyl)-2-(tetrahydro-2H-pyran-4-yl)-1H-imidazo[4,5-c]quinoline]",≤ 3.16,–,–
"COc1cc2c(cc1-c1c(C)noc1C)ncc1nc(C3CCOCC3)n([C@H](C)c3ccccn3)c12 (single isomer, unassigned) [Example 45]",–,≤ 3.16,–
"COCCn1c(=O)n([C@H](C)c2ccccn2)c2c3cc(OC)c(-c4c(C)noc4C)cc3ncc21 [Example 37, 7-(3,5-dimethyl-4-isoxazolyl)-8-(methyloxy)-3-[2-(methyloxy)ethyl]-1-[(1R)-1-(2-pyridinyl)ethyl]-1,3-dihydro-2H-imidazo[4,5-c]quinolin-2-one]",–,≤ 3.16,–
"COc1cc2c(cc1-c1c(C)n[nH]c1C)ncc1nc(C3CCOCC3)n([C@H](C)c3ccccc3)c12 [Example 108, 7-(3,5-dimethyl-1H-pyrazol-4-yl)-8-(methyloxy)-1-[(1R)-1-phenylethyl]-2-(tetrahydro-2H-pyran-4-yl)-1H-imidazo[4,5-c]quinoline]",≤ 3.16,–,–
"COc1cc2c(cc1-c1c(C)noc1C)ncc1[nH]c(=O)n(-c3ccccc3OC(F)(F)F)c12 [Example 12, 7-(3,5-dimethyl-4-isoxazolyl)-8-(methoxy)-1-{2-[(trifluoromethyl)oxy]phenyl}-1,3-dihydro-2H-imidazo[4,5-c]quinolin-2-one]",≤ 3.16,–,–
"COCc1nc2cnc3cc(-c4c(C)noc4C)c(OC)cc3c2n1C(C)c1ccccn1 (stereo not drawn) [Example 51, 7-(3,5-dimethyl-4-isoxazolyl)-8-(methyloxy)-2-[(methyloxy)methyl]-1-[1-(2-pyridinyl)ethyl]-1H-imidazo[4,5-c]quinoline]",–,≤ 3.16,–
"COc1nc2c(cc1-c1c(C)noc1C)ncc1[nH]c(=O)n(-c3ccccc3OC(F)(F)F)c12 [Example 126, 7-(3,5-dimethyl-4-isoxazolyl)-8-(methyloxy)-1-{2-[(trifluoromethyl)oxy]phenyl}-1,3-dihydro-2H-imidazo[4,5-c]-1,5-naphthyridin-2-one]",≤ 3.16,–,–
"COc1cc2c(cc1-c1c(C)noc1C)ncc1[nH]c(=O)n([C@@H](C)c3ccccn3)c12 (single isomer, unassigned) [Example 39]",–,≤ 3.16,–
"COc1cc2c(cc1-c1c(C)noc1C)ncc1[nH]c(=O)n(C(C)c3cnn(C)c3)c12 (stereo not drawn) [Example 40, 7-(3,5-dimethyl-4-isoxazolyl)-8-(methyloxy)-1-[1-(1-methyl-1H-pyrazol-4-yl)ethyl]-1,3-dihydro-2H-imidazo[4,5-c]quinolin-2-one]",–,≤ 3.16,–
"COc1cc2c(cc1-c1c(C)noc1C)ncc1[nH]c(=O)n([C@H](C)c3ccccn3)c12 [Example 11, 7-(3,5-dimethyl-4-isoxazolyl)-8-(methoxy)-1-[(1R)-1-(2-pyridinyl)ethyl]-1,3-dihydro-2H-imidazo[4,5-c]quinolin-2-one]",≤ 3.16,≤ 3.16,"Animals surviving at 4 days, percent [2]: 83%; Numbers of animals surviving at 4 days (summed across multiple repeat experiments) [2]: 55/66; IC50 [4]: 0.118 to 11.1 µM; IC50 [5]: 0.118 to 1.04 µM; IC50 [6]: 0.432 to 11.1 µM"
